Measured values reported in patent publication US9051310B2, “Nicotinamide derivative or salt thereof” (FUJIFILM Corporation, priority 2011, dated 2015).
pIC50: −log10 of the molar value.

Tests used:
[1] = target: T1, glutathione S-transferase (GST)-linked full-length human Syk protein (Homo sapiens, UniProt P43405); experiment: Syk enzyme assay; type: biochemical; conditions: 0.83 nM Syk, time-resolved fluorescence; read-out: IC50 of Syk-inhibitory activity
T1 construct: glutathione S-transferase (GST)-linked full-length human Syk protein; purchased Carna Biosciences; host or cells: Baculovirus expression system
How it was run: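 Phosphotyrosine on a biotin-peptide substrate (0.5 μM) was read by time-resolved fluorescence at 615 and 665 nm with Eu-anti-pTyr antibody and APC-streptavidin after 1 h EDTA stop.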

[2] = system: THP-1 cells (TNFα secretion on human IgG-coated plate); experiment: TNFα generation assay; type: cell-based; conditions: IFN-γ differentiated THP-1 cells, 7 hours, AlphaLISA, read-out: IC50 of TNFα generation inhibitory activity
How it was run: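 THP-1 cells were differentiated with 10 ng/ml IFN-γ for 2 days, then preincubated with compound for 30 min at room temperature. They were then plated at 5×10^4 cells/well on plates coated with human IgG (10 μg/ml). TNFα secreted over 7 h of culture was quantified by AlphaLISA.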

SMILES	pIC50 [1]	pIC50 [2]
CC[C@@H](Nc1nc(Nc2ccc3onc(OC)c3c2)c(C(N)=O)cc1F)[C@H](C)N [Example 2-57, 6-(((2S,3R)-2-aminopentan-3-yl)amino)-5-fluoro-2-((3-methoxybenzo[d]isoxazol-5-yl)amino)nicotinamide]	> 8.00	6.89 to 7.19
COc1nn(C)c2ccc(Nc3nc(N[C@H](C4CCC4)[C@H](C)N)c(F)cc3C(N)=O)cc12 [Example 2-82, 6-(((1R,2S)-2-amino-1-cyclobutylpropyl)amino)-5-fluoro-2-((3-methoxy-1-methyl-1H-indazol-5-yl)amino)nicotinamide]	> 8.00	6.70 to 6.89
CCCC[C@@H](Nc1nc(Nc2ccc3c(c2)c(OC)nn3C)c(C(N)=O)cc1F)[C@H](C)N [Example 2-83, 6-(((2S,3R)-2-aminoheptan-3-yl)amino)-5-fluoro-2-((3-methoxy-1-methyl-1H-indazol-5-yl)amino)nicotinamide]	> 8.00	6.70 to 6.89
CCn1ncc2c(Nc3nc(N[C@H](COC)[C@H](C)N)c(F)cc3C(N)=O)cccc21 [Example 2-122, 6-(((2S,3S)-3-amino-1-methoxybutan-2-yl)amino)-2-((1-ethyl-1H-indazol-4-yl)amino)-5-fluoronicotinamide]	7.30 to 8.00	6.70 to 6.89
COCCn1nc(C)c2cc(Nc3nc(N[C@H](C4CC4)[C@H](C)N)c(F)cc3C(N)=O)ccc21 [Example 2-133, 6-(((1R,2S)-2-amino-1-cyclopropylpropyl)amino)-5-fluoro-((1-(2-methoxyethyl)-3-methyl-1H-indazol-5-yl)amino)nicotinamide]	> 8.00	6.89 to 7.19
CC(C)[C@@H](Nc1nc(Nc2ccc3ncccc3c2)c(C(N)=O)cc1F)[C@H](C)N [Example 2-106, 6-(((2S,3R)-2-amino-4-methylpentan-3-yl)amino)-5-fluoro-2-(quinolin-6-ylamino)nicotinamide]	7.30 to 8.00	6.70 to 6.89
CCn1ncc2cc(Nc3nc(N[C@H](C4CCC4)[C@H](C)N)c(F)cc3C(N)=O)ccc21 [Example 2-9]	> 8.00	6.89 to 7.19
COC[C@@H](Nc1nc(Nc2ccc3c(c2)c(C)nn3CC(F)F)c(C(N)=O)cc1F)[C@H](C)N [Example 2-139, 6-(((2S,3S)-3-amino-1-methoxybutan-2-yl)amino)-2-((1-(2,2-difluoroethyl)-3-methyl-1H-indazol-5-yl)amino)-5-fluoronicotinamide]	> 8.00	6.89 to 7.19
CC[C@H](N)[C@@H](C)Nc1nc(Nc2ccc3c(c2)c(OC)nn3C)c(C(N)=O)cc1F [Example 2-84, 6-(((2R,3S)-3-aminopentan-2-yl)amino)-5-fluoro-2-((3-methoxy-1-methyl-1H-indazol-5-yl)amino)nicotinamide]	> 8.00	6.70 to 6.89
COc1ncc(Nc2nc(N[C@H](CC(C)C)[C@H](C)N)c(F)cc2C(N)=O)cc1-n1ccnn1 [Example 2-141, 6-(((2S,3R)-2-amino-5-methylhexan-3-yl)amino)-5-fluoro-2-((6-methoxy-5-(1H-1,2,3-triazol-1-yl)pyridin-3-yl)amino)nicotinamide]	7.30 to 8.00	6.70 to 6.89

Next, values leading:

pIC50 [1]	pIC50 [2]	SMILES
> 8.00	6.89 to 7.19	CC[C@H](N)[C@H](Nc1nc(Nc2ccc3c(cnn3CC)c2)c(C(N)=O)cc1F)C1CC1 [Example 2-362]
> 8.00	> 7.19	CCn1ncc2cc(Nc3nc(N[C@H](c4cccs4)[C@H](C)N)c(F)cc3C(N)=O)ccc21 [Example 2-416]
7.30 to 8.00	6.70 to 6.89	Cc1nn(C)c2ncc(Nc3nc(N[C@@H]4CCCC[C@@H]4N)c(F)cc3C(N)=O)cc12 [Example 2-239, 6-(((1R,2S)-2-aminocyclohexyl)amino)-2-((1,3-dimethyl-1H-pyrazolo[3,4-b]pyridin-5-yl)amino)-5-fluoronicotinamide]
> 8.00	6.89 to 7.19	COC[C@@H](Nc1nc(Nc2ccc3c(c2)c(OC(F)F)nn3C)c(C(N)=O)cc1F)[C@H](C)N [Example 2-173, 6-(((2S,3S)-3-amino-1-methoxybutan-2-yl)amino)-2-((3-(difluoromethoxy)-1-methyl-1H-indazol-5-yl)amino)-5-fluoronicotinamide]
7.30 to 8.00	6.70 to 6.89	C[C@H](N)[C@H](Nc1nc(Nc2ccnc(N3CCOCC3)c2F)c(C(N)=O)cc1F)C1CC1 [Example 2-233, 6-(((1R,2S)-2-amino-1-cyclopropylpropyl)amino)-5-fluoro-2-((3-fluoro-2-morpholinopyridin-4-yl)amino)nicotinamide]
> 8.00	6.70 to 6.89	Cc1cnn(-c2cncc(Nc3nc(N[C@H](C4CC4)[C@H](C)N)c(F)cc3C(N)=O)c2)c1 [Example 2-519, 6-(((1R,2S)-2-amino-1-cyclopropylpropyl)amino)-5-fluoro-2-((5-(4-methyl-1H-pyrazol-1-yl)pyridin-3-yl)amino)nicotinamide]
> 8.00	6.70 to 6.89	Cc1nn(C)c2ncc(Nc3nc(N[C@@H](CN)CC(C)C)c(F)cc3C(N)=O)cc12 [Example 2-240, (R)-6-((1-amino-4-methylpentan-2-yl)amino)-2-((1,3-dimethyl-1H-pyrazolo[3,4-b]pyridin-5-yl)amino)-5-fluoronicotinamide]
> 8.00	6.89 to 7.19	CC[C@@H](Nc1nc(Nc2cccc(C(C)=O)c2)c(C(N)=O)cc1F)[C@H](C)N [Example 2-478, 2-((3-acetylphenyl)amino)-6-(((2S,3R)-2-aminopentan-3-yl)amino)-5-fluoronicotinamide]
> 8.00	6.89 to 7.19	NC(=O)c1cc(F)c(N[C@@H]2CCCC[C@@H]2N)nc1Nc1cccc(Cl)c1 [Example 2-439, 6-(((1R,2S)-2-aminocyclohexyl)amino)-2-((3-chlorophenyl)amino)-5-fluoronicotinamide]
> 8.00	6.89 to 7.19	CC[C@H](N)[C@@H](CC)Nc1nc(Nc2ccc3c(cnn3CCOC)c2)c(C(N)=O)cc1F [Example 2-266, 6-(((3R,4S)-4-aminohexan-3-yl)amino)-5-fluoro-2-((1-(2-methoxyethyl)-1H-indazol-5-yl)amino)nicotinamide]
> 8.00	6.70 to 6.89	CC[C@@H](Nc1nc(Nc2cccc(C)c2)c(C(N)=O)cc1F)[C@H](C)N [Example 2-474, 6-(((2S,3R)-2-aminopentan-3-yl)amino)-5-fluoro-2-(m-tolylamino)nicotinamide]
> 8.00	6.89 to 7.19	COC[C@@H](Nc1nc(Nc2cc(F)c3c(c2)c(OC)nn3C)c(C(N)=O)cc1F)[C@H](C)N [Example 2-159, 6-(((2S,3S)-3-amino-1-methoxybutan-2-yl)amino)-5-fluoro-2-((7-fluoro-3-methoxy-1-methyl-1H-indazol-5-yl)amino)nicotinamide]
> 8.00	6.89 to 7.19	CC(=O)c1cccc(Nc2nc(N[C@@H]3CCCC[C@@H]3N)c(F)cc2C(N)=O)c1 [Example 2-442, 2-((3-acetylphenyl)amino)-6-(((1R,2S)-2-aminocyclohexyl)amino)-5-fluoronicotinamide]
> 8.00	6.70 to 6.89	CC[C@H](N)[C@@H](C)Nc1nc(Nc2cccc3c2cnn3CCOC)c(C(N)=O)cc1F [Example 2-311, 6-(((2R,3S)-3-aminopentan-2-yl)amino)-5-fluoro-2-((1-(2-methoxyethyl)-1H-indazol-4-yl)amino)nicotinamide]
